Measured values published in patent US20080132536A1, “PYRAZOLO [3,4-B] PYRIDINE COMPOUNDS, AND THEIR USE AS PDE4 INHIBITORS” (Glaxo Group Limited, priority 2003, published 2008).
Each block holds one compound with its values, some of them ahead of it.

Columns and labels:
conscious ferret = assay: In Vivo Assay 4: therapeutic index of orally-administered PDE4 inhibitors in the conscious ferret (LPS-induced pulmonary neutrophilia and emesis); parameters: species or system ferret (Mustela Pulorius Furo); conditions: p.o.
Procedure: PDE4 inhibitors are prepared for oral (p.o.) administration by dissolving in a fixed volume (ca. 1 ml) of acetone and then adding cremophor to ca. 20% of the final volume. Acetone is evaporated by directing a flow of nitrogen gas onto the solution. Once the acetone is removed, the solution is made up to final volume with distilled water. LPS is dissolved in phosphate buffered saline.
Male ferrets (Mustela Pulorius Furo, weighing 1-2 kg) are transported and allowed to acclimatise for not less than 7 days. The diet comprises SDS diet C pelleted food given ad lib with Whiskers™ cat food given 3 times per week. The animals are supplied with pasteurised animal grade drinking water changed daily.
PDE4 inhibitors are administered orally (p.o.), using a dose volume of ca. 1 ml/kg. […] The animals are constantly observed and any emetic episodes (retching and vomiting) or behavioural changes are recorded. […]
About thirty minutes after oral dosing with compound or vehicle control, the ferrets are placed into sealed perspex containers and exposed to an aerosol of LPS (ca. 30 μg/ml=ca. 30 ug/ml) for ca. 10 minutes. […] All emetic episodes and behavioural changes are recorded.
About six hours after LPS exposure the animals are killed by overdose of sodium pentobarbitone administered intraperitoneally. […] From this, the total number of neutrophils in the BAL sample is determined. […]

[1] = molecular target: T1, PDE4B (human recombinant) (Homo sapiens, UniProt Q07343); assay: PDE4B inhibition, radioactive SPA and/or IMAP fluorescence polarisation (FP) assay; assay type: biochemical; conditions: for IC50: one reading or average of several (ca. 2-6) readings, SPA and/or FP assay, range given for a group of Examples, read-out: PDE4B pIC50 (±about 0.5) (converted)
T1 construct: made in house
From the text: Human recombinant PDE4B, in particular the 2B splice variant thereof (HSPDE4B2B), is disclosed in WO 94/20079 and also M. M. McLaughlin et al., “A low Km, rolipram-sensitive, cAMP-specific phosphodiesterase from human brain: cloning and expression of cDNA, biochemical characterisation of recombinant protein, and tissue distribution of mRNA”, J. Biol. Chem., 1993, 268, 6470-6476. For example, in Example 1 of WO 94/20079, human recombinant PDE4B is described as being expressed in the PDE-deficient yeast Saccharomyces cerevisiae strain GL62, e.g. after induction by addition of 150 uM CuSO4, and 100,000×g supernatant fractions of yeast cell lysates are described for use in the harvesting of PDE4B enzyme.
The ability of compounds to inhibit catalytic activity at PDE4B or 4D (human recombinant), PDE3 (from bovine aorta), PDE5 (human recombinant) or PDE6 (from bovine retina) can optionally be determined by Scintillation Proximity Assay (SPA) in 96-well format.
Test compounds (as a solution in DMSO, preferably about 2 microlitre (ul) volume of DMSO solution) are preincubated at ambient temperature (room temperature, e.g. 19-23° C.) in Wallac Isoplates (code 1450-514) with PDE enzyme in 50 mM Tris-HCl buffer pH 7.5, 8.3 mM MgCl2, 1.7 mM EGTA, 0.05% (w/v) bovine serum albumin for 10-30 minutes (usually 30 minutes). The enzyme concentration is adjusted so that no more than 20% hydrolysis of the substrate defined below occurs in control wells without compound, during the incubation. For the PDE3, PDE4B and PDE4D assays, [5′,8-3H]Adenosine 3′,5′-cyclic phosphate (Amersham Pharmacia Biotech, code TRK.559; or Amersham Biosciences UK Ltd, Pollards Wood, Chalfont St Giles, Buckinghamshire HP8 4SP, UK) is added to give 0.05 uCi per well and about 10 nM final concentration. For the PDE5 and PDE6 assays, [8-^3H]Guanosine 3′,5′-cyclic phosphate (Amersham Pharmacia Biotech, code TRK.392) is added to give 0.05 uCi per well and about 36 nM final concentration. Plates containing assay mixture, preferably approx. 100 ul volume of assay mixture, are mixed on an orbital shaker for 5 minutes and incubated at ambient temperature for 1 hour. Phosphodiesterase SPA beads (Amersham Pharmacia Biotech, code RPNQ 0150) are added (about 1 mg per well) to terminate the assay. Plates are sealed and shaken and allowed to stand at ambient temperature for 35 minutes to 1 hour (preferably 35 minutes) to allow the beads to settle. Bound radioactive product is measured using a WALLAC TRILUX 1450 Microbeta scintillation counter. For inhibition curves, 10 concentrations (1.5 nM-30 uM) of each compound are assayed. Curves are analysed using ActivityBase and XLfit (ID Business Solutions Limited, 2 Ocean Court, Surrey Research Park, Guildford, Surrey GU2 7QB, United Kingdom) Results are expressed as pIC50 values.
The ability of compounds to inhibit catalytic activity at PDE4B (human recombinant) or PDE4D (human recombinant) can optionally be determined by IMAP Fluorescence Polarisation (FP) assay (IMAP Explorer kit, available from Molecular Devices Corporation, Sunnydale, Calif., USA; Molecular Devices code: R8062) in 384-well format.
The IMAP FP assay is able to measure PDE activity in an homogenous, non-radioactive assay format. The FP assay uses the ability of immobilised trivalent metal cations, coated onto nanoparticles (tiny beads), to bind the phosphate group of Fl-AMP that is produced on the hydrolysis of fluorescein-labelled (Fl) cyclic adenosine mono-phosphate (Fl-cAMP) to the non-cyclic Fl-AMP form. […] Binding of Fl-AMP product to the beads (coated with the immobilised trivalent cations) slows the rotation of the bound Fl-AMP and leads to an increase in the fluorescence polarisation ratio of parallel to perpendicular light. Inhibition of the PDE reduces/inhibits this signal increase. […]

[2] = From the text: Micronisation usually involves subjecting the compound/salt to collisional and/or abrasional forces in a fast-flowing circular or spiral/vortex-shaped airstream often including a cyclone component.
In particle size measurements, D90, D50 and D10 respectively mean that 90%, 50% and 10% of the material is less than the micron size specified. D50 is the median particle size. DV90, DV50 and […] respectively mean that 90%, 50% and 10% by volume of the material is less than the micron size specified. DM90, DM50 and DM10 respectively mean that 90%, 50% and 10% by weight of the material is less than the micron size specified.
Laser diffraction measurement of particle size can use a dry method (wherein a suspension of the compound/salt in an airflow crosses the laser beam) or a wet method [wherein a suspension of the compound/salt in a liquid dispersing medium, such as isooctane or (e.g. if compound is soluble in isooctane) 0.1% Tween 80 in water, crosses the laser beam]. With laser diffraction, particle size is preferably calculated using the Fraunhofer calculation; and/or preferably a Malvern Mastersizer or Sympatec apparatus is used for measurement.
• Purpose: To micronise Example 73, 75, 98, 283, 304, 306, 307, 308, 309, 310, 311, 312, 313, 314 or 314A or 333 (described hereinafter), usually in an amount of approximately 600-1000 mg thereof, using a Jetpharma MC 1 micronizer. • The parent (unmicronised) and micronised materials are analyzed for particle size by laser diffraction and crystallinity by PXRD.
The micronizer is assembled. The narrow head of the venturi inlet is positioned below and slightly forward of the material inlet port and is measured with a micro-caliper to make sure that it is inserted correctly. The ring (R) and venturi (V) pressures are adjusted according to the values specified in the experimental design (refer to experimental section below) by adjusting the valves on the pressure gauges on the micronizer. The setup is checked for leakage by observing if there is any fluctuation in the reading of the pressure gauges.
Balance performance is checked with calibration weights. Specified amount of the parent material (see e.g. section on experimental run Procedure 1 for Example 307) is fed into the input container of the micronizer using a spatula. The input container plus material is weighed. The equipment pressure is monitored during the micronization process.
Upon completion of the micronising run, the nitrogen supply is shut off and the micronised material is allowed to settle into the micronizer container. The micronised powder in the micronizer container (collection vessel) and the cyclone (above the recovery vessel) are collected together into a pre-weighed and labelled collection vial. The weight of the micronised material is recorded. The input container is re-weighed in order to calculate the amount of input material by difference. The micronizer is disassembled and residual PDE4 compound on the micronizer inner surface is rinsed with 70/30 isopropyl alcohol/water and collected into a flask. The micronizer is then thoroughly cleaned in a Lancer washing machine and dried before subsequent runs are performed.

[3] = micronised, V = 5 to 7 bar, R = 3 to 4 bar

T1 sequence (Q07343 1-564 isoform Q07343-2): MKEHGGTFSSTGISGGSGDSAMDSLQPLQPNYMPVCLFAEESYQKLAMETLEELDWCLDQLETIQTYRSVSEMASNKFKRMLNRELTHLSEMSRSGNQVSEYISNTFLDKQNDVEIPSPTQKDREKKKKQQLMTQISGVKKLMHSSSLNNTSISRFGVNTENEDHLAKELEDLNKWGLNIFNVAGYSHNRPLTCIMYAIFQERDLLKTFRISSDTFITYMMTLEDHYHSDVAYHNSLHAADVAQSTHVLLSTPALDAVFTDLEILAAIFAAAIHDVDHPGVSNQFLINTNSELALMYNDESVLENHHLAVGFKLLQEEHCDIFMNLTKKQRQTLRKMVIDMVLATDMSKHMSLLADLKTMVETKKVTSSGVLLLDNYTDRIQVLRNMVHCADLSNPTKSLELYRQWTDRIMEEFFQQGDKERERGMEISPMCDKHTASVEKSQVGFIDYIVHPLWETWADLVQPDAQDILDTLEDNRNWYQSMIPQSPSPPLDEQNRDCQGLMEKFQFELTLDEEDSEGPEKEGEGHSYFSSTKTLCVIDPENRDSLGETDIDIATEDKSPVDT

SMILES: O=C(Nc1c(Cl)cncc1Cl)c1ccc(OC(F)F)c(OCC2CC2)c1 [roflumilast]
D20 for emesis (dose giving 20% incidence of emesis) (conscious ferret): about 0.46 mg/kg
D50 for ferret neutrophilia (dose giving 50% inhibition of LPS-induced pulmonary neutrophilia) (conscious ferret): about 0.42 mg/kg

SMILES: CCn1ncc2c(NC3CCOCC3)c(C(=O)NC(C)(C)c3ccccc3)cnc21 [Example 2, 1-ethyl-N-(1-methyl-1-phenylethyl)-4-(tetrahydro-2H-pyran-4-ylamino)-1H-pyrazolo[3,4-b]pyridine-5-carboxamide]
IC50 [1]: 12.6 to 25.1 nM

SMILES: CC[C@@H](NC(=O)c1cnc2c(cnn2CC)c1NC1CCN(C(C)=O)CC1)c1ccccc1 [Example 174, 4-[(1-acetyl-4-piperidinyl)amino]-1-ethyl-N-[(1R)-1-phenylpropyl]-1H-pyrazolo[3,4-b]pyridine-5-carboxamide]
PDE4B inhibitory activity compared with the comparable Example of opposite stereochemistry at the CR4R5 (benzylic) carbon atom ([1]; comparators: Examples 6, 7, 29, 26, 64, 126, 124, 170, 177): greater PDE4B inhibitory activity

More lines, now with the values ahead:

IC50 [1]: 0.1 to 2 nM
SMILES: CCn1ncc2c(NC3CCOCC3)c(C(=O)NC(C)c3ccc(C)cc3)cnc21 (stereo not drawn) [Example 48, 1-ethyl-N-[1-(4-methylphenyl)ethyl]-4-(tetrahydro-2H-pyran-4-ylamino)-1H-pyrazolo[3,4-b]pyridine-5-carboxamide]

Particle Size Data D10 (micronised material) [2, 3]: D10 = 0.84 microns
Particle Size Data D50 (micronised material) [2, 3]: D50 = 1.56 microns
Particle Size Data D90 (micronised material) [2, 3]: D90 = 2.74 microns
Particle Size Data D10 (unmicronised material) ([2]; unmicronised): D10 = 2.48 microns
Particle Size Data D50 (unmicronised material) ([2]; unmicronised): D50 = 8.98 microns
Particle Size Data D90 (unmicronised material) ([2]; unmicronised): D90 = 24.14 microns
SMILES: CCC(NC(=O)c1cnc2c(cnn2CC)c1NC1CCOCC1)c1ccc(C)cc1C.Cl (single isomer, unassigned; enantiomer 2) [Example 307, N-[1-(2,4-dimethylphenyl)propyl]-1-ethyl-4-(tetrahydro-2H-pyran-4-ylamino)-1H-pyrazolo[3,4-b]pyridine-5-carboxamide (Enantiomer 2) hydrochloride]

IC50 [1]: 0.1 to 2 nM
SMILES: CCn1ncc2c(NC3CCCC(O)C3)c(C(=O)NC(C)c3ccc(C)cc3)cnc21 (mixture of isomers) [Example 283, 1-ethyl-4-{[(1S,3R)-and/or (1R,3S)-3-hydroxycyclohexyl]amino}-N-[(1R)-1-(4-methylphenyl)ethyl]-1H-pyrazolo[3,4-b]pyridine-5-carboxamide]
